Assay results taken from patent publication US20240239775A1, “FXR REGULATOR, PREPARATION METHOD THEREFOR, PHARMACEUTICAL COMPOSITION THEREOF AND USE THEREOF” (QINGDAO RUIJI MEDICAL TECHNOLOGY CO., LTD., priority 2021, published 2024).

These compounds were tested against T1, FXR (Homo sapiens, UniProt Q96RI1) (assay: FXR antagonist screening by TR-FRET (LanthaScreen TR-FRET FXR co-activation assay kit)). Conditions: Table 1.2, FXR antagonistic activity; TR-FRET with CDCA; geometric means of at least two independent runs.
T1 construct: 5 μL of 20 nM FXR-LBD Complete Coregulator buffer G; purchased ThermoFisher PV4833
T1 sequence (Q96RI1 262-486 limits assumed): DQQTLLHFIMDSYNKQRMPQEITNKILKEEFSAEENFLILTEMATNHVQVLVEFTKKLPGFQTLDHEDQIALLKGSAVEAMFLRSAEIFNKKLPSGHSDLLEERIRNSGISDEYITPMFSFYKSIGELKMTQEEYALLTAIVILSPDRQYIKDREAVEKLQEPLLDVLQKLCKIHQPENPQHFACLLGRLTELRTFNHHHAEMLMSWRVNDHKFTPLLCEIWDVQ
Assay type: biochemical
Procedure, shortened: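 FXR-LBD (20 nM working solution) mixed with compound, CDCA (200 μM working solution) as agonist, Fluorescein-SRC2-2 and Tb-anti-GST antibody in Coregulator buffer G; 10 h at room temperature. Coactivator recruitment read by TR-FRET, triplicate wells.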
`CCOC(=O)c1oc2ccc(S(=O)(=O)N(CCc3ccccc3)c3ccccc3N3CCN(C(=O)c4cccs4)CC3)cc2c1C` [Example M10-118, Ethyl 3-methyl-5-(N-phenethyl-N-(2-(4-(thiophene-2-carbonyl)piperazin-1-yl)phenyl)sulfamoyl)benzofuran-2-carboxylate] was tested, and the IC50 was 50 to 100 µM. In the case of `CCOC(=O)c1oc2ccc(S(=O)(=O)N(CCc3ccccc3)c3ccccc3N3CCN(C(=O)c4ccsc4)CC3)cc2c1C` [Example M10-119, Ethyl 3-methyl-5-(N-phenethyl-N-(2-(4-(thiophene-3-carbonyl)piperazin-1-yl)phenyl)sulfamoyl)benzofuran-2-carboxylate], the IC50 is reported as 50 to 100 µM. `C/C=C/C(=O)N1CCN(c2ccccc2N(CCc2ccccc2)S(=O)(=O)c2ccc3oc(C(=O)OCC)c(C)c3c2)CC1` [Example M10-120, (E)ethyl-5-(N-(2-(4-(but-2-enoyl)piperazin-1-yl)phenyl)-N-phenethylsulfamoyl)-3-methylbenzofuran-2-carboxylate] gave an IC50 of 50 to 100 µM. For `CCOC(=O)c1oc2ccc(S(=O)(=O)N(CCc3ccccc3)c3ccccc3N3CCN(C(=O)c4ccco4)CC3)cc2c1C` [Example M10-121, Ethyl 5-(N-(2-(4-(furan-2-carbonyl)piperazin-1-yl)phenyl)-N-phenethylsulfamoyl)-3-methylbenzofuran-2-carboxylate], the IC50 was 50 to 100 µM. Work on `CCOC(=O)c1oc2ccc(S(=O)(=O)N(CCc3ccccc3)c3ccccc3N3CCN(C(=O)C4CCCC4)CC3)cc2c1C` [Example M10-122, Ethyl 5-(N-(2-(4-(cyclopentanecarbonyl)piperazin-1-yl)phenyl)-N-phenethylsulfamoyl)-3-methylbenzofuran-2-carboxylate] yielded an IC50 of 50 to 100 µM. `CCOC(=O)c1oc2ccc(S(=O)(=O)N(CCc3ccccc3)c3ccccc3N3CCN(C(=O)c4ccc(Br)s4)CC3)cc2c1C` [Example M10-123, Ethyl 5-(N-(2-(4-(5-bromothiophene-2-carbonyl)piperazin-1-yl)phenyl)-N-phenethylsulfamoyl)-3-methylbenzofuran-2-carboxylate] was tested, and the IC50 was 50 to 100 µM. Work on `CCOC(=O)c1oc2ccc(S(=O)(=O)N(CCc3ccccc3)c3ccccc3N3CCN(C(=O)c4ccc[nH]4)CC3)cc2c1C` [Example M10-124, Ethyl 5-(N-(2-(4-(1H-pyrrole-2-carbonyl)piperazin-1-yl)phenyl)-N-phenethylsulfamoyl)-3-methylbenzofuran-2-carboxylate] yielded an IC50 of 50 to 100 µM. `CCOC(=O)c1oc2ccc(S(=O)(=O)N(CCc3ccccc3)c3ccccc3N3CCN(C(=O)c4sccc4Br)CC3)cc2c1C` [Example M10-125, ethyl 5-(N-(2-(4-(3-bromothiophene-2-carbonyl)piperazin-1-yl)phenyl)-N-phenethylsulfamoyl)-3-methylbenzofuran-2-carboxylate] showed an IC50 of 50 to 100 µM. `CCOC(=O)c1oc2ccc(S(=O)(=O)N(CCc3ccccc3)c3ccccc3N3CCN(C(=O)c4sccc4Cl)CC3)cc2c1C` [Example M10-126, Ethyl 5-(N-(2-(4-(3-chlorothiophene-2-carbonyl)piperazin-1-yl)phenyl)-N-phenethylsulfamoyl)-3-methylbenzofuran-2-carboxylate] was tested, and the IC50 was 50 to 100 µM. In the case of `CCOC(=O)c1oc2ccc(S(=O)(=O)N(CCc3ccccc3)c3ccccc3N3CCN(C(=O)c4cc(Br)cs4)CC3)cc2c1C` [Example M10-127, Ethyl 5-(N-(2-(4-(4-bromothiophene-2-carbonyl)piperazin-1-yl)phenyl)-N-phenethylsulfamoyl)-3-methylbenzofuran-2-carboxylate], the IC50 is reported as 50 to 100 µM. For `CCOC(=O)c1oc2ccc(S(=O)(=O)N(CCc3ccccc3)c3ccccc3N3CCN(C(=O)c4ccc(Cl)s4)CC3)cc2c1C` [Example M10-128, Ethyl 5-(N-(2-(4-(5-chlorothiophene-2-carbonyl)piperazin-1-yl)phenyl)-N-phenethylsulfamoyl)-3-methylbenzofuran-2-carboxylate], the IC50 was 50 to 100 µM. For `CCOC(=O)c1oc2ccc(S(=O)(=O)N(CCc3ccccc3)c3ccccc3N3CCN(C(=O)c4cncs4)CC3)cc2c1C` [Example M10-129, Ethyl 3-methyl-5-(N-phenethyl-N-(2-(4-(thiazole-5-carbonyl)piperazin-1-yl)phenyl)sulfamoyl)benzofuran-2-carboxylate], the IC50 was 50 to 100 µM. `CCOC(=O)c1oc2ccc(S(=O)(=O)N(CCc3ccccc3)c3ccccc3N3CCN(C(=O)c4cc[nH]n4)CC3)cc2c1C` [Example M10-130, Ethyl 5-(N-(2-(4-(1H-pyrazole-3-carbonyl)piperazin-1-yl)phenyl)-N-phenethylsulfamoyl)-3-methylbenzofuran-2-carboxylate] showed an IC50 of 50 to 100 µM. Work on `CCOC(=O)c1oc2ccc(S(=O)(=O)N(CCc3ccccc3)c3ccccc3N3CCN(C(=O)c4cnco4)CC3)cc2c1C` [Example M10-131, Ethyl 3-methyl-5-(N-(2-(4-(oxazole-5-carbonyl)piperazin-1-yl)phenyl)-N-phenethylsulfamoyl)benzofuran-2-carboxylate] yielded an IC50 of 50 to 100 µM. For `CCOC(=O)c1oc2ccc(S(=O)(=O)N(CCc3ccccc3)c3ccccc3N3CCN(C(=O)c4ccc(C)c(C)c4)CC3)cc2c1C` [Example M10-132, Ethyl 5-(N-(2-(4-(3,4-Dimethylbenzoyl)piperazin-1-yl)phenyl)-N-phenethylsulfamoyl) 3-methylbenzofuran-2-carboxylate], the IC50 was 50 to 100 µM. For `CCOC(=O)c1oc2ccc(S(=O)(=O)N(CCc3ccccc3)c3ccccc3N3CCN(C(=O)c4c(OC)cccc4OC)CC3)cc2c1C` [Example M10-133, Ethyl 5-(N-(2-(4-(2,6-Dimethoxybenzoyl)piperazin-1-yl)phenyl)-N-phenethylsulfamoyl)3-methylbenzofuran-2-carboxylate], the IC50 was 50 to 100 µM. In the case of `CCOC(=O)c1oc2ccc(S(=O)(=O)N(CCc3ccccc3)c3ccccc3N3CCN(C(=O)c4ccccc4Cc4ccccc4)CC3)cc2c1C` [Example M10-134, Ethyl 5-(N-(2-(4-(2-benzylbenzoyl)piperazin-1-yl)phenyl)-N-phenethylsulfamoyl)3-methylbenzofuran-2-carboxylate], the IC50 is reported as 50 to 100 µM. `CCOC(=O)c1oc2ccc(S(=O)(=O)N(CCc3ccccc3)c3ccccc3N3CCN(C(=O)c4c(C)cc(C)cc4C)CC3)cc2c1C` [Example M10-135, Ethyl 5-(N-(2-(4-(2,4,6-trimethylbenzoyl)piperazin-1-yl)phenyl)-N-phenethylsulfamoyl)3-methylbenzofuran-2-carboxylate] gave an IC50 of 50 to 100 µM. Work on `CCOC(=O)c1oc2ccc(S(=O)(=O)N(CCc3ccccc3)c3ccccc3N3CCN(C(=O)c4ccccc4OC)CC3)cc2c1C` [Example M10-136, Ethyl 5-(N-(2-(4-(2-methoxybenzoyl)piperazin-1-yl)phenyl)-N-phenethylsulfamoyl)3-methylbenzo furan-2-carboxylate] yielded an IC50 of 50 to 100 µM. With `CCOC(=O)c1oc2ccc(S(=O)(=O)N(CCc3ccccc3)c3ccccc3N3CCN(C(=O)c4cc(C)ccc4C)CC3)cc2c1C` [Example M10-137, Ethyl 5-(N-(2-(4-(2,5-Dimethylbenzoyl)piperazin-1-yl)phenyl)-N-phenethylsulfamoyl)3-methylbenzofuran-2-carboxylate] the IC50 was 50 to 100 µM. For `CCOC(=O)c1oc2ccc(S(=O)(=O)N(CCc3ccccc3)c3ccccc3N3CCN(C(=O)c4ccc(C#Cc5ccccc5)cc4)CC3)cc2c1C` [Example M10-138, Ethyl 5-(N-(2-(4-(4-(phenylethynyl)benzoyl)piperazin-1-yl)phenyl)-N-phenethylsulfamoyl)3-methylbenzofuran-2-carboxylate], the IC50 was 50 to 100 µM. `CCOC(=O)c1oc2ccc(S(=O)(=O)N(CCc3ccccc3)c3ccccc3N3CCN(C(=O)c4ccc(C)s4)CC3)cc2c1C` [Example M10-139, Ethyl 5-(N-(2-(4-(5-methylthiophene-2-formyl)piperazin-1-yl)phenyl)-N-phenethylsulfamoyl)3-methylbenzofuran-2-carboxylate] gave an IC50 of 50 to 100 µM. Compound `CCOC(=O)c1oc2ccc(S(=O)(=O)N(CCc3ccccc3)c3ccccc3N3CCN(C(=O)c4cc(C)cs4)CC3)cc2c1C` [Example M10-140, Ethyl 5-(N-(2-(4-(4-methylthiophene-2-formyl)piperazin-1-yl)phenyl)-N-phenethylsulfamoyl)3-methylbenzofuran-2-carboxylate] has an IC50 of 50 to 100 µM. For `CCOC(=O)c1oc2ccc(S(=O)(=O)N(CCc3ccccc3)c3ccccc3N3CCN(C(=O)c4sccc4C)CC3)cc2c1C` [Example M10-141, Ethyl 5-(N-(2-(4-(3-methylthiophene-2-formyl)piperazin-1-yl)phenyl)-N-phenethylsulfamoyl)3-methylbenzofuran-2-carboxylate], the IC50 was 50 to 100 µM. In the case of `CCOC(=O)c1oc2ccc(S(=O)(=O)N(CCc3ccccc3)c3ccccc3N3CCN(C(=O)c4ncc[nH]4)CC3)cc2c1C` [Example M10-142, Ethyl 5-(N-(2-(4-(1H-imidazole-2-formyl)piperazin-1-yl)phenyl)-N-phenethylsulfamoyl)3-methylbenzofuran-2-carboxylate], the IC50 is reported as 50 to 100 µM. `CCOC(=O)c1oc2ccc(S(=O)(=O)N(CCc3ccccc3)c3ccccc3N3CCN(C(=O)C4CCCS4)CC3)cc2c1C` (stereo not drawn) [Example M10-143, Ethyl 5-(N-(2-(4-(tetrahydrothiophene-2-formyl)piperazin-1-yl)phenyl)-N-phenethylsulfamoyl)3-methylbenzofuran-2-carboxylate] was tested, and the IC50 was 50 to 100 µM. With `CCOC(=O)c1oc2ccc(S(=O)(=O)N(CCc3ccccc3)c3ccccc3N3CCN(C(=O)c4c[nH]cn4)CC3)cc2c1C` [Example M10-144, Ethyl 5-(N-(2-(4-(1H-imidazole-4-carbonyl)piperazin-1-yl)phenyl)-N-phenethylsulfamoyl)3-methylbenzofuran-2-carboxylate] the IC50 was 50 to 100 µM.
